Measurements published in ChEMBL document CHEMBL2074081, “Functional characteristics and membrane localization of rat multispecific organic cation transporters, OCT1 and OCT2, mediating tubular secretion of cationic drugs” (J Pharmacol Exp Ther, 1998).

T1: Solute carrier family 22 member 1 (Rattus norvegicus, UniProt Q63089)
T1 sequence (Q63089 whole entry): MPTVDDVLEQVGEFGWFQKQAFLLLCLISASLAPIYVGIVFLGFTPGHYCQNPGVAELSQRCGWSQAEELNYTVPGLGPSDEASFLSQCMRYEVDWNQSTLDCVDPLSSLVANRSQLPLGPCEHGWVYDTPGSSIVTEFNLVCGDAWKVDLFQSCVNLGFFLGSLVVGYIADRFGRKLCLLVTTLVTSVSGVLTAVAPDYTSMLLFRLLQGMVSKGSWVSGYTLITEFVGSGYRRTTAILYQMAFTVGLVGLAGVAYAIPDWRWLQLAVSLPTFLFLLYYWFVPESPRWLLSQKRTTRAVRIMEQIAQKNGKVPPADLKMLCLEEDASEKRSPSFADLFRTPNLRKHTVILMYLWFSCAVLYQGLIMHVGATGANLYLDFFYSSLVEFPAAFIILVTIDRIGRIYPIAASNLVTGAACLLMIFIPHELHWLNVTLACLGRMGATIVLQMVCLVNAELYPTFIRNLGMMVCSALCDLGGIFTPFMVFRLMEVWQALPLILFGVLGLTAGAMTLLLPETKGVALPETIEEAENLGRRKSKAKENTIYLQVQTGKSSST

T2: Solute carrier family 22 member 2 (Rattus norvegicus, UniProt Q9R0W2)
T2 sequence (Q9R0W2 whole entry): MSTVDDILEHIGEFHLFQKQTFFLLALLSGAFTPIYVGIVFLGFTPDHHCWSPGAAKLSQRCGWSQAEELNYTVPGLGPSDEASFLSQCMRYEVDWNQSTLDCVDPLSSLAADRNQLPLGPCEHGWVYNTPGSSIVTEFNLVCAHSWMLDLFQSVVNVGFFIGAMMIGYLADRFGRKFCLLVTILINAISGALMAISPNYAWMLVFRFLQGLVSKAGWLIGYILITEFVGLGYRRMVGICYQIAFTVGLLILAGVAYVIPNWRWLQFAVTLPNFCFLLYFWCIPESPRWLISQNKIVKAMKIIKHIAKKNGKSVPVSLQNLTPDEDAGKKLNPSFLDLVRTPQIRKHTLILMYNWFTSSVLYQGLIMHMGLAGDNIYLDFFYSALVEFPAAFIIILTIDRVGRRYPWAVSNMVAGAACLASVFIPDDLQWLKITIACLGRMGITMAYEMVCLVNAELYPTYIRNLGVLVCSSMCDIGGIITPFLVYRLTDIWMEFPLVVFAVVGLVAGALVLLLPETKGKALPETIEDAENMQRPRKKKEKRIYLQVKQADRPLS


What was measured:
[1] = molecular target: T1, Solute carrier family 22 member 1; assay: TP_TRANSPORTER: inhibition of TEA uptake (basolateral to cell) in OCT1-expressing MDCK cells; type: functional, cell-based
[2] = molecular target: T2, Solute carrier family 22 member 2; assay: TP_TRANSPORTER: inhibition of TEA uptake (basolateral to cell) in OCT2-expressing MDCK cells; type: functional, cell-based
[3] = molecular target: T2, Solute carrier family 22 member 2; assay: TP_TRANSPORTER: inhibition of TEA uptake (apical to cell) in OCT2-expressing MDCK cells
[4] = substrate: CC[N+](CC)(CC)CC; assay: cells, lysate or membranes named

| Molecule | Ki [1] | Ki [2] | Ki [3] | Km [4] |
| --- | --- | --- | --- | --- |
| CN1CCC[C@H]1c1cccnc1 [NICOTINE] | 64.3 µM | 50.5 µM | – | – |
| N=C(N)N [GUANIDINE] | 724 µM | 714 µM | – | – |
| C=C[C@H]1C[N@@]2CC[C@H]1C[C@@H]2[C@@H](O)c1ccnc2ccc(OC)cc12 [QUINIDINE] | – | 19.1 µM | – | – |
| CN/C(=N/CCSCc1nc[nH]c1C)NC#N [CIMETIDINE] | 5.7 µM | 9.4 µM | – | – |
| C[n+]1ccc(-c2ccccc2)cc1 | 0.8 µM | 1.8 µM | – | – |
| CC[N+](CC)(CC)CC [TETRYLAMMONIUM] | 46.6 µM | – | 52.2 µM | – |
| CNC(=O)c1cccnc1 [NICOTINYL METHYLAMIDE] | 669 µM | 403 µM | – | – |
| Solute carrier family 22 member 2 (Rattus norvegicus) (protein) MSTVDDILEHIGEFHLFQKQTFFLLALLSGAFTPIYVGIVFLGFTPDHHCWSPGAAKLSQRCGWSQAEELNYTVPGLGPSDEASFLSQCMRYEVDWNQSTLDCVDPLSSLAADRNQLPLGPCEHGWVYNTPGSSIVTEFNLVCAHSWMLDLFQSVVNVGFFIGAMMIGYLADRFGRKFCLLVTILINAISGALMAISPNYAWMLVFRFLQGLVSKAGWLIGYILITEFVGLGYRRMVGICYQIAFTVGLLILAGVAYVIPNWRWLQFAVTLPNFCFLLYFWCIPESPRWLISQNKIVKAMKIIKHIAKKNGKSVPVSLQNLTPDEDAGKKLNPSFLDLVRTPQIRKHTLILMYNWFTSSVLYQGLIMHMGLAGDNIYLDFFYSALVEFPAAFIIILTIDRVGRRYPWAVSNMVAGAACLASVFIPDDLQWLKITIACLGRMGITMAYEMVCLVNAELYPTYIRNLGVLVCSSMCDIGGIITPFLVYRLTDIWMEFPLVVFAVVGLVAGALVLLLPETKGKALPETIEDAENMQRPRKKKEKRIYLQVKQADRPLS | – | – | – | 45 µM |
| Solute carrier family 22 member 1 (Rattus norvegicus) (protein) MPTVDDVLEQVGEFGWFQKQAFLLLCLISASLAPIYVGIVFLGFTPGHYCQNPGVAELSQRCGWSQAEELNYTVPGLGPSDEASFLSQCMRYEVDWNQSTLDCVDPLSSLVANRSQLPLGPCEHGWVYDTPGSSIVTEFNLVCGDAWKVDLFQSCVNLGFFLGSLVVGYIADRFGRKLCLLVTTLVTSVSGVLTAVAPDYTSMLLFRLLQGMVSKGSWVSGYTLITEFVGSGYRRTTAILYQMAFTVGLVGLAGVAYAIPDWRWLQLAVSLPTFLFLLYYWFVPESPRWLLSQKRTTRAVRIMEQIAQKNGKVPPADLKMLCLEEDASEKRSPSFADLFRTPNLRKHTVILMYLWFSCAVLYQGLIMHVGATGANLYLDFFYSSLVEFPAAFIILVTIDRIGRIYPIAASNLVTGAACLLMIFIPHELHWLNVTLACLGRMGATIVLQMVCLVNAELYPTFIRNLGMMVCSALCDLGGIFTPFMVFRLMEVWQALPLILFGVLGLTAGAMTLLLPETKGVALPETIEEAENLGRRKSKAKENTIYLQVQTGKSSST | – | – | – | 38 µM |
